Experimental data: patent publication US11779565B2, “Small organic molecules for use in the treatment of neuroinflammatory disorders” (THE MEDICAL RESEARCH, INFRASTRUCTURE AND HEALTH SERVICES …, priority 2017, dated 2023)

Each compound was assayed against T1, BMP-2 (Homo sapiens, UniProt P12643) (assay: ATDC5 cell based HTS bioassay: ALP production stimulated by BMP-2 and heparin). Settings: inhibition of BMP-2-stimulated ALP in ATDC5 cells, 48 hours, tested at 0.62-10 μM.
T1 construct: purchased R&D Systems
T1 sequence (P12643 283-396): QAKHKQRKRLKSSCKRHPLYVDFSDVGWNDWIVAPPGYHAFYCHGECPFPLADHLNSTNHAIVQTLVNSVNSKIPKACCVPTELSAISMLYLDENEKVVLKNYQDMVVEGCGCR
Design: species or system mouse
Procedure: Poly-L-lysine (Sigma-Aldrich) was added to 384-well plates and was removed after 30 min of incubation at RT. An assay medium containing DMEM/F12, 2% FBS, 100 units/ml penicillin, […] streptomycin (Biological industries) was added to each well. […] ATDC5 cells (Sigma-Aldrich) were harvested, re-suspended in assay medium and added to a final concentration of 2000 cells/well. Finally, heparin (Sigma-Aldrich) was added to a final concentration of 2 μg/ml. The cells were incubated for 48 hours at 37° C. with 5% CO2 in a humidified chamber in the presence or absence of potential small molecule inhibitors of BPM-2. After incubation, ALP levels and cell viability were determined using a completely automated protocol. Cells were washed with PBS, lysed using a lysis buffer containing 0.2% Triton X-100 in PBS supplemented with a protease inhibitor cocktail (Sigma-Aldrich) and incubated for 25 min at RT. ALP level was then determined by addition of CDP-Star® chemiluminescent substrate (Sigma-Aldrich) and measurement of luminescence after incubation for 25 min at RT in the dark. Cell viability was finally determined by addition of CellTiter-Glo® reagent (Biological Industries) and luminescence measurement after 10 min of incubation.
An ATDC5 cell based assay for assessing structure-function relationship of BMP-2 and BMP receptor IA was originally described in Keller et al (Nature Structural & Molecular Biology 2004 11, 481-488). In order to screen a large volume of potential therapeutic agents the ATDC5 cell based bioassay for detecting BMP inhibition was adapted for use in high throughput screening. The bioassay is based on the stimulation of alkaline phosphatase (ALP) production in mouse ATDC5 cells by administration of BMP-2 and heparin, and measurement of ALP levels in the presence of the potential inhibitors. […] This was achieved by using CellTiter-Glo® Luminescent Cell Viability Assay for assessing the cells' viability after the luminescent signal by CDP-Star® has faded. The simultaneous assessment of both ALP production and cells' viability was necessary since potentially toxic tested small molecules may lead to reduced ALP levels by cellular cytotoxicity rather than by interference with BMP-2 signaling. […] Particulars of the bioassay are detailed in the Experimental procedures section above.
A library of small molecules (SM) was screened using the High Throughput Screening bioassay described above. About 7600 SMs were screened, from the Maybridge library, which consists of organic “drug-like” compounds, using the pre-plated HitFinder™ Collection. […] The SM were tested at various concentrations, i.e. at 0.62 μM, 1.25 μM, 2.5 μM, 5 μM and 10 μM.

IC50 | Compound
8.5 µM | c1ccc(C2=NNC(c3ccccc3)=NN2)cc1 [SM2, 1,4-Dihydro-3,6-diphenyl-1,2,4,5-tetrazine]
2.6 µM | CCOC(=O)c1c(NC(=O)c2ccc([N+](=O)[O-])o2)nc(SC)n1Cc1cccs1 [SM3]
10 µM | O=C1c2cccc3cc([N+](=O)[O-])cc(c23)C(=O)N1c1ccc(S(=O)(=O)Nc2ccc(C(F)(F)F)cc2)cc1 [SM4, 4-(5-nitro-1,3-dioxobenzo(de)isoquinolin-2-yl)-N-[4-(trifluoromethyl)phenyl]benzenesulfonamide]
3.8 µM | CC(=O)NC(=O)CCSc1ccccc1C(=O)NC(C)=O [SM5, N1-acetyl-2-([3-(acetylamino)-3-oxopropyl]thio)benzamide]
2.8 µM | C/C(=N\NC(=S)NC(C)(C)C)c1ccc(Oc2c(Cl)cncc2Cl)cc1 [SM8, 1-tert-butyl-3-[E-1-(4-(3,5-dichloropyridin-4-yl)oxyphenyl]ethylideneamino)thiourea]

These compounds were tested on P19 cells (assay: In vitro differentiation assay of P19 cells (MAP-2 positive neurons)). Settings: RA stimulation alone (5×10^−7 M), day 8.
Format: cell-based, murine
Procedure: P19 cells were grown in a-minimum essential medium (aMEM) (Gibco) containing 7.5% calf serum, 2.5% fetal calf serum, and 0.4 μl/ml penicillin—streptomycin (Gibco), at 37° C., 5% CO2. Cells were replenished with fresh medium every 48 h.
The medium, including RA, BMP supplements and SMs, was replenished after 48 h. After 4 days, aggregates which formed during RA treatment were dispersed enzymatically (0.05% v/v trypsin-0.02% v/v EDTA) and mechanically and plated in tissue culture grade dishes. At this stage, cells were cultured in RA-, BMP- and SM-free medium, which was refreshed every 48 h. MAP-2 positive neurons were examined at day 8 (i.e., day 4 post-RA treatment) by immunofluorescence. Briefly, at day 7, cells were re-cultured in 24 well-plates with cover slips at a final concentration of 5×10^4 cells/well. On day 8, cells were washed with PBS, fixed with PFA 4% for 15 min, permeabilized with 0.5% Triton Tx, blocked with 10% FCS, 0.1% BSA and 0.05% Tween for 30 min, and stained with MAP2 rabbit mAb (1:100, D5G1, Cell Signaling) for 1 hr. The second antibody step was performed by labeling with Alexa Fluor® 488-conjugated IgG antibody to rabbit for 1 h (1:1000; Molecular Probes USA).
Next, the effect of the small molecules on neurogenesis in a P19 differentiation model was measured. […] Neuronal differentiation is marked by the expression of the neuronal marker MAP-2, while the addition of BMP-2 reduces the levels of this marker. Addition of the murine anti-BMP-2/4 monoclonal antibody reverses the effect of BMP-2 and induces acquisition of neuronal phenotype. Thus, the effect of SM1, SM7 and SM9 on the expression of the neuronal marker MAP-2 in P19 cells was examined in the presence of RA and BMP-2. Three concentrations of the molecules were tested: 0.625 μM, 1.25 μM and 2.5 μM.

Compound | MAP-2+ cells
CC1=C(/C=C/C(C)=C/C=C/C(C)=C/C(=O)O)C(C)(C)CCC1 [RA, all-trans-retinoic acid, reference compound] | 73.8±6.5%
